From PubChem BioAssay AID330 (DTP/NCI, 2004)
Where “and” joins values, the source holds several entries; their conditions need not be identical. Equal values may be shown once. Inconclusive results and toxic doses are left out.

Tested on: P388 leukemia ip, CD2F1 mice, survival T/C
Test: NCI In Vivo Anticancer Drug Screen. Data for tumor model P388 Leukemia (intraperitoneal) in CD2F1 (CDF1) mice
Conditions: endpoint: median survival time, higher = longer survival
Procedure, shortened: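 Mice carrying the transplanted tumor received test compound or vehicle. Survival was recorded in each group, and the value is the treated-group measurement divided by that of the vehicle-treated control group.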

## Nc1ccc(/C=C\c2nccc3ccccc23)cc1
dose: 3.13 mg/kg/injection, schedule: Q01DX009 (ip), vehicle: saline with Tween-80
  T/C: 102 % of control

## S=C(N/N=C/c1ccncc1)Nc1ccccc1
dose: 60.0 mg/kg/injection, schedule: Q01DX005 (ip), vehicle: Klucel (hydroxypropylcellulose) (HPC)
  T/C: 99 % of control
dose: 120.0 mg/kg/injection, schedule: Q01DX005 (ip), vehicle: Klucel (hydroxypropylcellulose) (HPC)
  T/C: 100 % of control
dose: 240.0 mg/kg/injection, schedule: Q01DX005 (ip), vehicle: Klucel (hydroxypropylcellulose) (HPC)
  T/C: 91 % of control

## O=C1CSC(c2ccc(O)c(O)c2)N1c1nncs1 (stereo unspecified)
dose: 25.0 mg/kg/injection, schedule: Q04DX002 (ip), vehicle: saline with Tween-80
  T/C: 96 % of control
dose: 50.0 mg/kg/injection, schedule: Q04DX002 (ip), vehicle: saline with Tween-80
  T/C: 100 % of control
dose: 100.0 mg/kg/injection, schedule: Q04DX002 (ip), vehicle: saline with Tween-80
  T/C: 98 % of control

## CCc1cc(C=C2C(=O)c3ccccc3C2=O)cc(CC)c1O
dose: 100.0 mg/kg/injection, schedule: Q04DX002 (ip), vehicle: saline
  T/C: 99 % of control
dose: 200.0 mg/kg/injection, schedule: Q04DX002 (ip), vehicle: saline
  T/C: 99 % of control
dose: 400.0 mg/kg/injection, schedule: Q04DX002 (ip), vehicle: saline
  T/C: 99 % of control

## O=C1Nc2ccc(Cl)cc2C(c2ccccc2)=NC1O (stereo unspecified)
dose: 12.5 mg/kg/injection, schedule: Q01DX009 (ip), vehicle: Klucel (hydroxypropylcellulose) (HPC)
  T/C: 97 % of control
dose: 25.0 mg/kg/injection, schedule: Q01DX009 (ip), vehicle: Klucel (hydroxypropylcellulose) (HPC)
  T/C: 97 % of control
dose: 50.0 mg/kg/injection, schedule: Q01DX009 (ip), vehicle: Klucel (hydroxypropylcellulose) (HPC)
  T/C: 108 % of control
dose: 100.0 mg/kg/injection, schedule: Q01DX009 (ip), vehicle: Klucel (hydroxypropylcellulose) (HPC)
  T/C: 89 % of control
dose: 200.0 mg/kg/injection, schedule: Q01DX009 (ip), vehicle: Klucel (hydroxypropylcellulose) (HPC)
  T/C: 111 % of control
dose: 400.0 mg/kg/injection, schedule: Q01DX009 (ip), vehicle: Klucel (hydroxypropylcellulose) (HPC)
  T/C: 99 % of control

## CC(=O)Nc1ccc(S(=O)(=O)N/N=c2/sc3ccccc3n2C)cc1
dose: 60.0 mg/kg/injection, schedule: Q01DX005 (ip), vehicle: saline with Tween-80
  T/C: 100 % of control
dose: 120.0 mg/kg/injection, schedule: Q01DX005 (ip), vehicle: saline with Tween-80
  T/C: 92 % of control
dose: 240.0 mg/kg/injection, schedule: Q01DX005 (ip), vehicle: saline with Tween-80
  T/C: 95 % of control

## CCOC(=O)c1ccc(NC(=NC(C)(C)C)C(C)C)cc1
dose: 50.0 mg/kg/injection, schedule: Q01DX009 (ip), vehicle: saline with Tween-80
  T/C: 96 % of control
dose: 100.0 mg/kg/injection, schedule: Q01DX009 (ip), vehicle: saline with Tween-80
  T/C: 101 % of control
dose: 200.0 mg/kg/injection, schedule: Q01DX009 (ip), vehicle: saline with Tween-80
  T/C: 91 % of control

## CCNC1(N(C)C)N=C(N(C)C)N=C(N(C)C)O1 (stereo unspecified)
dose: 50.0 mg/kg/injection, schedule: Q01DX005 (ip), vehicle: saline
  T/C: 96 % of control
dose: 100.0 mg/kg/injection, schedule: Q01DX005 (ip), vehicle: saline
  T/C: 96 % of control

## CC1(C)CC(OP(=O)(OC2CC(C)(C)N(O)C(C)(C)C2)N2CC2)CC(C)(C)N1O
dose: 100.0 mg/kg/injection, schedule: Q01DX001 (ip), vehicle: Klucel (hydroxypropylcellulose) (HPC)
  T/C: 100 % of control
dose: 200.0 mg/kg/injection, schedule: Q01DX001 (ip), vehicle: Klucel (hydroxypropylcellulose) (HPC)
  T/C: 97 % of control
dose: 400.0 mg/kg/injection, schedule: Q01DX001 (ip), vehicle: Klucel (hydroxypropylcellulose) (HPC)
  T/C: 104 % of control

## CC(C(=O)c1ccc(O)cc1)(c1nc2nnc(N)n2[nH]c1=O)c1nc2nnc(N)n2[nH]c1=O
dose: 60.0 mg/kg/injection, schedule: Q01DX005 (ip), vehicle: saline
  T/C: 98 % of control
dose: 120.0 mg/kg/injection, schedule: Q01DX005 (ip), vehicle: saline
  T/C: 98 % of control
dose: 240.0 mg/kg/injection, schedule: Q01DX005 (ip), vehicle: saline
  T/C: 97 % of control

## Cc1nc2scc(-c3ccc(Cl)cc3)n2c(=O)c1CN1CCCCC1
dose: 50.0 mg/kg/injection, schedule: Q04DX002 (ip), vehicle: Klucel (hydroxypropylcellulose) (HPC)
  T/C: 97 % of control
dose: 100.0 mg/kg/injection, schedule: Q04DX002 (ip), vehicle: Klucel (hydroxypropylcellulose) (HPC)
  T/C: 95 % of control
dose: 200.0 mg/kg/injection, schedule: Q04DX002 (ip), vehicle: Klucel (hydroxypropylcellulose) (HPC)
  T/C: 97 % of control

## CC1=NS(C)(=O)=c2ccc(C)cc2=N1 (stereo unspecified)
dose: 50.0 mg/kg/injection, schedule: Q01DX005 (ip), vehicle: acetone
  T/C: 100 % of control
dose: 100.0 mg/kg/injection, schedule: Q01DX005 (ip), vehicle: acetone
  T/C: 100 % of control
dose: 200.0 mg/kg/injection, schedule: Q01DX005 (ip), vehicle: acetone
  T/C: 100 % of control

## COC(=O)[C@@]12OC[C@]34[C@H]([C@@H](O)[C@@H]1O)[C@@]1(C)CC(=O)C(O)=C(C)[C@@H]1C[C@H]3OC(=O)[C@H](OC(=O)/C=C(\C)C(C)C)[C@@H]24
dose: 0.03 mg/kg/injection, schedule: Q01DX009 (ip), vehicle: saline + alcohol
  T/C: 108 % of control
dose: 0.06 mg/kg/injection, schedule: Q01DX009 (sc), vehicle: saline + alcohol
  T/C: 107 % of control
dose: 0.06 mg/kg/injection, schedule: Q03HX024 (ip), vehicle: saline + alcohol
  T/C: 152 % of control
dose: 0.13 mg/kg/injection, schedule: Q01DX009 (ip), vehicle: saline with Tween-80
  T/C: 160 % of control
dose: 0.13 mg/kg/injection, schedule: Q01DX009 (sc), vehicle: saline + alcohol
  T/C: 108 % of control
dose: 0.13 mg/kg/injection, schedule: Q03HX024 (ip), vehicle: saline + alcohol
  T/C: 151 % of control
dose: 0.25 mg/kg/injection, schedule: Q01DX009 (ip), vehicle: distilled water + Tween-80
  T/C: 155 % of control and 177 % of control
dose: 0.25 mg/kg/injection, schedule: Q01DX009 (ip), vehicle: saline with Tween-80
  T/C: 156 % of control
dose: 0.25 mg/kg/injection, schedule: Q01DX009 (sc), vehicle: saline + alcohol
  T/C: 106 % of control
dose: 0.25 mg/kg/injection, schedule: Q03HX024 (ip), vehicle: saline + alcohol
  T/C: 164 % of control
dose: 0.38 mg/kg/injection, schedule: Q01DX009 (ip), vehicle: saline + Tween-80 + alcohol
  T/C: 155 % of control
dose: 0.5 mg/kg/injection, schedule: Q01DX009 (ip), vehicle: distilled water + Tween-80
  T/C: 155 % of control and 185 % of control
dose: 0.5 mg/kg/injection, schedule: Q01DX009 (ip), vehicle: saline with Tween-80
  T/C: 169 % of control
dose: 0.5 mg/kg/injection, schedule: Q01DX009 (oral), vehicle: saline + alcohol
  T/C: 102 % of control
dose: 0.5 mg/kg/injection, schedule: Q01DX009 (sc), vehicle: saline + alcohol
  T/C: 110 % of control
dose: 0.5 mg/kg/injection, schedule: Q08DX002 (ip), vehicle: saline + alcohol
  T/C: 101 % of control
dose: 1.0 mg/kg/injection, schedule: Q01DX001 (ip), vehicle: saline + alcohol
  T/C: 111 % of control
dose: 1.0 mg/kg/injection, schedule: Q01DX001 (sc), vehicle: saline + alcohol
  T/C: 109 % of control
dose: 1.0 mg/kg/injection, schedule: Q01DX005 (ip), vehicle: water
  T/C: 155 % of control
dose: 1.0 mg/kg/injection, schedule: Q01DX009 (ip), vehicle: distilled water + Tween-80
  T/C: 158 % of control and 166 % of control
dose: 1.0 mg/kg/injection, schedule: Q01DX009 (ip), vehicle: saline with Tween-80
  T/C: 185 % of control
dose: 1.0 mg/kg/injection, schedule: Q01DX009 (oral), vehicle: saline + alcohol
  T/C: 104 % of control
dose: 1.0 mg/kg/injection, schedule: Q08DX002 (ip), vehicle: saline + alcohol
  T/C: 100 % of control
dose: 2.0 mg/kg/injection, schedule: Q01DX001 (ip), vehicle: saline + alcohol
  T/C: 116 % of control
dose: 2.0 mg/kg/injection, schedule: Q01DX001 (sc), vehicle: saline + alcohol
  T/C: 115 % of control
dose: 2.0 mg/kg/injection, schedule: Q01DX009 (ip), vehicle: saline with Tween-80
  T/C: 209 % of control
dose: 2.0 mg/kg/injection, schedule: Q01DX009 (oral), vehicle: saline + alcohol
  T/C: 104 % of control
dose: 2.0 mg/kg/injection, schedule: Q08DX002 (ip), vehicle: saline + alcohol
  T/C: 102 % of control
dose: 4.0 mg/kg/injection, schedule: Q01DX001 (ip), vehicle: saline + alcohol
  T/C: 120 % of control
dose: 4.0 mg/kg/injection, schedule: Q01DX001 (oral), vehicle: saline + alcohol
  T/C: 106 % of control
dose: 125.0 micrograms/kg/injection, schedule: Q01DX009 (ip), vehicle: saline + alcohol
  T/C: 124 % of control
dose: 250.0 micrograms/kg/injection, schedule: Q01DX009 (ip), vehicle: saline + alcohol
  T/C: 155 % of control
dose: 500.0 micrograms/kg/injection, schedule: Q01DX009 (ip), vehicle: saline + alcohol
  T/C: 171 % of control
dose: 1000.0 micrograms/kg/injection, schedule: Q01DX009 (ip), vehicle: saline + alcohol
  T/C: 160 % of control and 197 % of control
dose: 2000.0 micrograms/kg/injection, schedule: Q01DX009 (ip), vehicle: saline + alcohol
  T/C: 152 % of control
